Data taken from US9701729B2, “Peptide having 5 linked CTL epitopes” (TAIHO PHARMACEUTICAL CO., LTD., priority 2013, dated 2017).

Experiments:
[1] = test system: CTL epitope peptide specific CTL; test: Induction of epitope peptide specific CTLs in mouse model, detection by IFN-γ ELISPOT; format: in vivo, mice (HLA-A2.1 transgenic and HLA-A24 transgenic mice); details: emulsion with IFA, 100 μl weekly at base of tail, twice; inguinal lymph node cells 1 week after final administration; positive = spots significantly above negative control peptide (p<0.05)
Description: The peptides having 5 linked epitopes were dissolved in Otsuka distilled water (Otsuka Pharmaceutical Factory Inc.) at 2 mg/ml or 4 mg/ml, and the resulting solution was filled into the B Braun Injekt syringe. After the equivalent amount of Incomplete Freund's adjuvant (IFA) was filled into another syringe, these syringes were connected to each other using a GP syringe connector, and a solution of the peptides having 5 linked epitopes was thoroughly mixed with IFA to prepare an emulsion. The emulsion was weekly administered in amounts of 100 μl each in the vicinity of base of tail of mice (HLA-A2.1 transgenic and HLA-A24 transgenic mice (Taconic)), and administrations were carried out twice in total. Inguinal lymph nodes were corrected from mice 1 week after the final administration. […] The number of IFN-γ-producing cell spots was quantified using an ELISPOT analyzer (Immunospot S6, Cellular Technology Ltd.). […]

[2] = test system: CTL epitope peptide specific IgG antibody; test: Measurement of CTL-epitope specific IgG antibody titer in mouse serum (peptide-immobilized beads, Bio-Plex); format: in vivo, CBF1 mice (C57BL/6×Balb/c F1); details: emulsion with IFA, 100 μl weekly, three times; serum 1 week after final administration; compared with the IFA group
Description: Peptides were immobilized onto xMAP Multi-Analyte COOH Microspheres (Luminex Corporation; hereafter referred to as “beads”) in the manner described below. The beads were washed with MES buffer (0.1 M MES-NaOH; pH 7.0), the supernatant was removed by centrifugation. This washing process was repeated twice and the beads were then suspended in 75 μl of MES buffer. 100 μl of CTL epitope peptide solution (1 mg/ml), and 5 μl of 10 mg/ml EDC (1-ethyl-3-(3-dimethylaminopropyl)carbodiimide hydrochloride) solution was added into beads suspension then mixed well. Thereafter, the reaction was performed at 30° C. in the dark overnight. After the removal of supernatant by centrifugation on the following day, 125 μl of 1 M Tris-HCl was added, and incubation was carried out at 30° C. in the dark for 30 minutes. After the supernatant was removed again, the beads were washed twice with wash buffer (PBS(-), 0.05% Tween 20) and were suspended in Immunoblock (DS Pharma Biomedical Co., Ltd.). […]
The CTL epitope peptide-immobilized beads diluted with Immunoblock were dispensed into wells of a 96-well filter plate. […] After the three times of plate washing with a wash buffer, 100 μl of wash buffer was added into each well to suspend beads, and the mean fluorescence intensity of PE which specifically bound to relevant beads was measured using the Bio-Plex Suspension Array System (BIO-RAD). […]

Substance | number of types of CTL epitope peptide specific CTLs induced [1] | induction of CTL epitope specific IgG antibody production [2]
PEP7-RR-PEP2-RR-PEP5-RR-PEP3-RR-PEP4 (QIRPIFSNRRRASLDSDPWVRRVYDYNCHVDLRRLLQAEAPRLRRDYSARWNEI) [TPV18] | no more than two CTLs induced | –
PEP2-RR-PEP3-RR-PEP4-RR-PEP5-RR-PEP7 (ASLDSDPWVRRLLQAEAPRLRRDYSARWNEIRRVYDYNCHVDLRRQIRPIFSNR) [TPV17] | – | multiple CTL epitope specific IgG antibodies production was not induced
